According to paper PMC7464027, “Design of Curcumin and Flavonoid Derivatives with Acetylcholinesterase and Beta-Secretase Inhibitory Activities Using in Silico Approaches” (Molecules, 2020):

Columns and labels:
beta-secretase (BACE-1) = biological target: T1, beta-secretase (BACE-1) (Homo sapiens, UniProt P56817); test: fluorescent BACE-1 activity detection kit (Sigma-Aldrich); type: biochemical
T1 construct: gene BACE1

[1] = biological target: Acetylcholinesterase (AChE) (Electrophorus electricus, UniProt O42275); test: Ellman's assay with electric eel AChE; type: biochemical
Sequence of Acetylcholinesterase (AChE) (O42275 24-633): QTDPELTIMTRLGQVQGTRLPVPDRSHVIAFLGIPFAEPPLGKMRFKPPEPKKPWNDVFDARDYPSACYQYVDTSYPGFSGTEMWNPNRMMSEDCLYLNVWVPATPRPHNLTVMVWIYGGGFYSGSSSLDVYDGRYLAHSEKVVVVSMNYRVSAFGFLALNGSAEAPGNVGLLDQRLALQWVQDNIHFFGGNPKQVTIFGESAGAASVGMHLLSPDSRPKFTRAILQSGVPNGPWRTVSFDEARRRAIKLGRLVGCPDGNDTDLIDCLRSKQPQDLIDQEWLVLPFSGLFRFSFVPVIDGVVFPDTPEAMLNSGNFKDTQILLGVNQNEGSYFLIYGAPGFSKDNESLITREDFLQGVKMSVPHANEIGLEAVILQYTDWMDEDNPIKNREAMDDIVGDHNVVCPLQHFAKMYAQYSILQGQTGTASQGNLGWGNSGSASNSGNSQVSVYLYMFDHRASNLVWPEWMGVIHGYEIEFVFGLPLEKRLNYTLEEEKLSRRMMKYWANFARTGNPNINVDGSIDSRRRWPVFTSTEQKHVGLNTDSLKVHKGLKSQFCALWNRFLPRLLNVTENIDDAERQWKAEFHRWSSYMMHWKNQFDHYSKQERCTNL

T1 sequence (P56817 46-457): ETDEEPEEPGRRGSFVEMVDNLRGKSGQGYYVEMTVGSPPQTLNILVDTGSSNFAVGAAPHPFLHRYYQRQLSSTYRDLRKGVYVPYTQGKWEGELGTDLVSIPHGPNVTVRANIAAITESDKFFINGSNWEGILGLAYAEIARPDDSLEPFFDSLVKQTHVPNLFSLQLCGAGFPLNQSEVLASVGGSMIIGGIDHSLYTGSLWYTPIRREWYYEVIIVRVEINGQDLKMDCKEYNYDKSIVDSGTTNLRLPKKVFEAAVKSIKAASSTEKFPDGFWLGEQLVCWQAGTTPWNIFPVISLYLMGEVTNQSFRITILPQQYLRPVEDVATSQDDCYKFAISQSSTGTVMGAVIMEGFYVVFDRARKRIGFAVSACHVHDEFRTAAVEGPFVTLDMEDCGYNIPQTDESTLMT

| SMILES | IC50 (beta-secretase (BACE-1)) | IC50 [1] |
| --- | --- | --- |
| CCOc1cc(C(=O)O)c(C(=O)CCc2ccccc2)c(N(C)C)c1 [F9, 3-(dimethylamino)-5-ethoxy-2-(3-phenylpropanoyl)benzoic acid] | 1.85 ± 0.33 µM | 30 ± 1.24 µM |
| CN(C)c1cccc(CCC(=O)c2cc(O)ccc2N(C)C)c1 [F24, 1-(2-(dimethylamino)-5-hydroxyphenyl)-3-(3-(dimethylamino)phenyl)propan-1-one] | 3.52 ± 0.77 µM | 80.5 ± 3.07 µM |
